Experiments:
Format in all cases: cell-based
[1] = biological target: T1, P2X7 (Homo sapiens (Human), UniProt Q99572); test: Ca2+ flux (FLIPR) in 1321N1 cells expressing recombinant human P2X7 channel; conditions: 250 μM BzATP;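 also: Calcium-4 dye-loaded cells exposed to compound for 30 min before agonist addition, fluorescence change read 180 s after agonist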
[2] = biological target: T1, P2X7; test: P2X7 antagonism in human PBMCs (LPS + Bz-ATP induced IL-1β release, ELISA); conditions: LPS 30 ng/ml, Bz-ATP 0.5 mM; for PBMC 1 μM (% control): compound 1 μM; for PBMC 10 μM (% control): compound 10 μM;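 as to all read-outs here: PBMCs from donor human blood, with a further 1.5 h incubation of the cells in the assay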
[3] = biological target: rat P2X7 (Rattus norvegicus (Rat), UniProt Q64663); test: Ca2+ flux (FLIPR) in 1321N1 cells expressing recombinant rat P2X7 channel; conditions: 250 μM BzATP;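 also: Calcium-4 dye fluorescence change read 180 s after agonist addition, following 30 min cell preincubation with test compound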
Chain of rat P2X7 (Q64663 whole entry): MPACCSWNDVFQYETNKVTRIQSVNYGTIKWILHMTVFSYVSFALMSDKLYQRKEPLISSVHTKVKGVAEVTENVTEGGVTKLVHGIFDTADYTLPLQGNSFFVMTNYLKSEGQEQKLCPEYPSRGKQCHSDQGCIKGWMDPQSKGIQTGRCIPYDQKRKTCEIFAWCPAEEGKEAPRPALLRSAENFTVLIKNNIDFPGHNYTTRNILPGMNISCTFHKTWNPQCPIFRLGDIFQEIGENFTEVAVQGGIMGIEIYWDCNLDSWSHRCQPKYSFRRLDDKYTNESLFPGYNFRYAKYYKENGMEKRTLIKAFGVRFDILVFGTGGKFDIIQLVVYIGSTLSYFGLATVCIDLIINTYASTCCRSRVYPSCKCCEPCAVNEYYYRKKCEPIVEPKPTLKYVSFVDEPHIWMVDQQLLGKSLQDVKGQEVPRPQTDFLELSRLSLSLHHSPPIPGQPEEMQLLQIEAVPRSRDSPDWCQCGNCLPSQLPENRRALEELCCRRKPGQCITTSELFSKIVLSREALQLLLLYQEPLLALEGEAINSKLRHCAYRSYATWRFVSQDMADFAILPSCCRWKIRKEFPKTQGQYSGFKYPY

T1 sequence (Q99572 whole entry): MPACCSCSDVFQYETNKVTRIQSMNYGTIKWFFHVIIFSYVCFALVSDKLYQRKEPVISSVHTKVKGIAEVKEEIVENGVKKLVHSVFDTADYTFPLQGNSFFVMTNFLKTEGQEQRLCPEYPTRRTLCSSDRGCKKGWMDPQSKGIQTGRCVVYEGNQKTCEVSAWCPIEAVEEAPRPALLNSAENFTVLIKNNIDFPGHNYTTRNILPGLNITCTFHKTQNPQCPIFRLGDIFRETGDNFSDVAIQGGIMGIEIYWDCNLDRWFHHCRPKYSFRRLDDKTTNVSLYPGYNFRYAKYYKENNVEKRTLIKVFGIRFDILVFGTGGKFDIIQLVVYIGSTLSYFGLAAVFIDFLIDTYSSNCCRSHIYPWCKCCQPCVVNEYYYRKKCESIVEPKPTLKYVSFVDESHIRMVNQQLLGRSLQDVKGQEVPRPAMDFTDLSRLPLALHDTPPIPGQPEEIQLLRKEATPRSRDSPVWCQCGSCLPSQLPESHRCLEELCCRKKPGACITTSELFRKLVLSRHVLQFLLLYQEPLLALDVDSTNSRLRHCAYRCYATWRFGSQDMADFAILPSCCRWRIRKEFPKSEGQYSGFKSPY

| IC50 [1] [nM] | PBMC 1 μM (% control) [2] [% control] | IC50 [3] [nM] | PBMC 10 μM (% control) [2] [% control] | Compound |
| --- | --- | --- | --- | --- |
| 25.1 | 10.1 | 398 | – | CC1c2ncn(-c3cnccn3)c2C=CN1C(=O)c1cccc(C(F)(F)F)c1Cl (stereo not drawn) [Example 56, 5-{[2-Chloro-3-(trifluoromethyl)phenyl]carbonyl}-4-methyl-1-pyrazin-2-yl-4,5-dihydro-1H-imidazo[4,5-c]pyridine] |
| 13.8 | 4.8 | 16.5 | – | CCOC(=O)C1c2ncn(-c3cnccn3)c2CCN1C(=O)c1cccc(C(F)(F)F)c1Cl (stereo not drawn) [Example 28, Ethyl 5-{[2-chloro-3-(trifluoromethyl)phenyl]carbonyl}-1-pyrazin-2-yl-4,5,6,7-tetrahydro-1H-imidazo[4,5-c]pyridine-4-carboxylate] |
| 499 | – | 38200 | −4.8 | Cc1cc(C)nc(-n2nnc3c2CCN(C(=O)c2cccc(Cl)c2Cl)C3C)c1 (stereo not drawn) [Example 231, (2,3-dichlorophenyl)(1-(4,6-dimethylpyridin-2-yl)-4-methyl-6,7-dihydro-1H-[1,2,3]triazolo[4,5-c]pyridin-5(4H)-yl)methanone] |
| 14.4 | – | 604 | 1.8 | C[C@H]1Cc2c(nnn2-c2ncc(F)cn2)CN1C(=O)c1ccc(Cl)cc1F [Example 156, (S)-(4-chloro-2-fluorophenyl)(1-(5-fluoropyrimidin-2-yl)-6-methyl-6,7-dihydro-1H-[1,2,3]triazolo[4,5-c]pyridin-5(4H)-yl)methanone] |
| 592 | – | > 10000 | −3.7 | Cc1cncc(-n2nnc3c2CCN(C(=O)c2cccc(Cl)c2Cl)C3C)n1 (stereo not drawn) [Example 180, (2,3-dichlorophenyl)(4-methyl-1-(6-methylpyrazin-2-yl)-6,7-dihydro-1H-[1,2,3]triazolo[4,5-c]pyridin-5(4H)-yl)methanone] |
| > 10000 | – | > 10000 | 101.5 | Cc1cnc(-n2nnc3c2CCN(C(=O)c2cccc(Cl)c2Cl)C3C)c(C)c1 (stereo not drawn) [Example 160, (2,3-dichlorophenyl)(1-(3,5-dimethylpyridin-2-yl)-4-methyl-6,7-dihydro-1H-[1,2,3]triazolo[4,5-c]pyridin-5(4H)-yl)methanone] |
| 1140 | – | – | −2.3 | CC1CN(C(=O)c2cccc(Cl)c2Cl)Cc2nnn(-c3ccccc3)c21 (stereo not drawn) [Example 244, (2,3-Dichlorophenyl)(7-methyl-1-phenyl-6,7-dihydro-1H-[1,2,3]triazolo[4,5-c]pyridin-5(4H)-yl)methanone] |
| 506 | – | 6680 | 17.8 | C[C@@H]1Cc2c(nnn2-c2ncccn2)CN1C(=O)c1cccc(C(F)(F)F)c1Cl (single isomer, unassigned) [Example 221, (6R*)-5-{[2-Chloro-3-(trifluoromethyl)phenyl]carbonyl}-6-methyl-1-pyrimidin-2-yl-4,5,6,7-tetrahydro-1H-[1,2,3]triazolo[4,5-c]pyridine] |
| 366 | – | 3350 | 8.4 | O=C(c1ccc(Cl)cc1F)N1CCc2c(nnn2-c2ccccn2)C1 [Example 129, (4-Chloro-2-fluorophenyl)(1-(pyridin-2-yl)-6,7-dihydro-1H-[1,2,3]triazolo[4,5-c]pyridin-5(4H)-yl)methanone] |
| 2310 | – | – | 15.2 | COc1ccc(-n2nnc3c2CCN(C(=O)c2cccc(C(F)(F)F)c2Cl)C3C)nc1 (stereo not drawn) [Example 145, (2-Chloro-3-(trifluoromethyl)phenyl)(1-(5-methoxypyridin-2-yl)-4-methyl-6,7-dihydro-1H-[1,2,3]triazolo[4,5-c]pyridin-5(4H)-yl)methanone] |
| > 10000 | 88.0 | > 10000 | – | Cn1nc2c(c1-c1ccncc1)CCN(C(=O)c1cccc(Cl)c1Cl)C2 [Example 328, (2,3-dichlorophenyl)(2-methyl-3-(pyridin-4-yl)-4,5-dihydro-2H-pyrazolo[3,4-c]pyridin-6(7H)-yl)methanone] |
| 158 | 83.4 | 1260 | – | COc1ccccc1-n1nnc2c1CCN(C(=O)c1cccc(C(F)(F)F)c1Cl)C2 [Example 125, (2-Chloro-3-(trifluoromethyl)phenyl)(1-(2-methoxyphenyl)-6,7-dihydro-1H-[1,2,3]triazolo[4,5-c]pyridin-5(4H)-yl)methanone] |
| > 10000 | – | > 10000 | 33.8 | O=C(c1cccc(Cl)c1Cl)N1CCc2c(n[nH]c2-c2cncnc2)C1 [Example 330, (2,3-dichlorophenyl)(3-(pyrimidin-5-yl)-4,5-dihydro-2H-pyrazolo[3,4-c]pyridin-6(7H)-yl)methanone] |
| 158 | 64.4 | 1580 | – | Cn1nc(-c2ccc(F)cc2)c2c1CN(C(=O)c1cccc(C(F)(F)F)c1Cl)CC2 [Example 106, 6-{[2-Chloro-3-(trifluoromethyl)phenyl]carbonyl}-3-(4-fluorophenyl)-1-methyl-4,5,6,7-tetrahydro-1H-pyrazolo[3,4-c]pyridine] |
| 600 | – | 1220 | −59.9 | CC1Cc2c(-c3ccn[nH]3)n[nH]c2CN1C(=O)c1ccc(Cl)cc1Cl (stereo not drawn) [Example 268, (2,4-dichlorophenyl)(5-methyl-3-(1H-pyrazol-5-yl)-4,5-dihydro-1H-pyrazolo[3,4-c]pyridin-6(7H)-yl)methanone] |
| 2390 | – | > 10000 | 7.1 | CC1c2ncn(-c3ccc(F)cn3)c2CCN1C(=O)c1ccc(F)cc1Cl (stereo not drawn) [Example 256, (2-chloro-4-fluorophenyl)(1-(5-fluoropyridin-2-yl)-4-methyl-6,7-dihydro-1H-imidazo[4,5-c]pyridin-5(4H)-yl)methanone] |
| 49 | – | 397 | 11.1 | CC1c2nnn(-c3ccc(F)cn3)c2CCN1C(=O)c1cccc(C(F)(F)F)c1Cl (stereo not drawn) [Example 71, 5-{[2-Chloro-3-(trifluoromethyl)phenyl]carbonyl}-1-(5-fluoropyridin-2-yl)-4-methyl-4,5,6,7-tetrahydro-1H-[1,2,3]triazolo[4,5-c]pyridine] |
| 99.3 | – | 1530 | −9.1 | Cc1nc2c(n1-c1ccccc1)CCN(C(=O)c1cccc(C(F)(F)F)c1Cl)C2 [Example 37, (2-Chloro-3-(trifluoromethyl)phenyl)(2-methyl-1-phenyl-6,7-dihydro-1H-imidazo[4,5-c]pyridin-5(4H)-yl)methanone] |
| 9590 | – | – | 40.5 | C[C@@H]1c2nnn(-c3ccccn3)c2CCN1C(=O)c1ccc(F)c(Cl)c1Cl (single isomer, unassigned) [Example 141, (R*)-(2,3-Dichloro-4-fluorophenyl)(4-methyl-1-(pyridin-2-yl)-6,7-dihydro-1H-[1,2,3]triazolo[4,5-c]pyridin-5(4H)-yl)methanone] |
| 251 | 94.1 | – | – | Cn1nc(-c2ccc(F)cc2)c2c1CN(C(=O)c1cccc(Cl)c1Cl)CC2 [Example 109, 6-[(2,3-Dichlorophenyl)carbonyl]-3-(4-fluorophenyl)-1-methyl-4,5,6,7-tetrahydro-1H-pyrazolo[3,4-c]pyridine] |
| 2330 | – | – | −0.8 | CC1CN(C(=O)c2cccc(Cl)c2Cl)Cc2nnn(-c3ccc(F)cc3)c21 (stereo not drawn) [Example 247, (2,3-Dichlorophenyl)(1-(4-fluorophenyl)-7-methyl-6,7-dihydro-1H-[1,2,3]triazolo[4,5-c]pyridin-5(4H)-yl)methanone] |
| 1110 | – | – | −5.4 | O=C(c1ccc(Cl)cc1Cl)N1CCc2c(ncn2-c2ccc(F)cn2)C1 [Example 313, (2,4-dichlorophenyl)(1-(5-fluoropyridin-2-yl)-6,7-dihydro-1H-imidazo[4,5-c]pyridin-5(4H)-yl)methanone] |
| 14.3 | – | – | −0.3 | O=C(c1cccc(C(F)(F)F)c1Cl)N1CCc2c(nc(C(F)(F)F)n2-c2ccccc2)C1 [Example 38, (2-Chloro-3-(trifluoromethyl)phenyl)(1-phenyl-2-(trifluoromethyl)-6,7-dihydro-1H-imidazo[4,5-c]pyridin-5(4H)-yl)methanone] |
| 3080 | 16.6 | – | – | O=C(OCC1c2ncn(-c3ccccc3)c2CCN1C(=O)c1cccc(C(F)(F)F)c1Cl)c1cccc(C(F)(F)F)c1Cl (stereo not drawn) [Example 36, (5-{[2-Chloro-3-(trifluoromethyl)phenyl]carbonyl}-1-phenyl-4,5,6,7-tetrahydro-1H-imidazo[4,5-c]pyridin-4-yl)methyl 2-chloro-3-(trifluoromethyl)benzoate] |
| – | – | 2210 | −9.6 | CCOc1cccnc1-n1nnc2c1CCN(C(=O)c1cccc(C(F)(F)F)c1Cl)[C@@H]2C (single isomer, unassigned) [Example 316, (R*)-(2-chloro-3-(trifluoromethyl)phenyl)(1-(3-ethoxypyridin-2-yl)-4-methyl-6,7-dihydro-1H-[1,2,3]triazolo[4,5-c]pyridin-5(4H)-yl)methanone] |

| Compound | IC50 [1] [nM] | PBMC 1 μM (% control) [2] [% control] | IC50 [3] [nM] | PBMC 10 μM (% control) [2] [% control] |
| --- | --- | --- | --- | --- |
| CC1c2nn(COCC[Si](C)(C)C)c(-c3ncc(F)cn3)c2CCN1C(=O)c1cccc(C(F)(F)F)c1Cl (stereo not drawn) [Example 303, (2-chloro-3-(trifluoromethyl)phenyl)(3-(5-fluoropyrimidin-2-yl)-7-methyl-2-((2-(trimethylsilyl)ethoxy)methyl)-4,5-dihydro-2H-pyrazolo[3,4-c]pyridin-6(7H)-yl)methanone] | 6920 | – | 5190 | −1.6 |

— patent US9464084B2, “P2X7 modulators” (Janssen Pharmaceutica NV, priority 2013, dated 2016)
